One assay has as its system Vldlr^−/− mice. Description: Neovascularization analysis (lesion number and size) in Vldlr^−/− retina whole mounts. Type of assay: in vivo, mouse. As for the experimental part:
(§1) All animal studies were performed according to protocols approved by the Institutional Animal Care and Use Committee at the Boston Children's Hospital. Vldlr^+/− (heterozygous) mice from Jackson Laboratory (Stock #002529) were bred to generate homozygous and wild type littermates. SR11302 (TOCRIS, Cat. 2476) was dissolved in corn oil. Vldlr^−/− pups were orally gavaged with SR11302 or corn oil as control at a dose of 1 mg/kg body weight daily from P5 to P15. P16 retinas were collected for PCR and neovascularization analysis.
Vldlr^−/− and wild type retina whole mounts were stained with isolectin IB4 and imaged with AxioObserver Z1 microscope (Zeiss) with a monochrome digital camera (AxioCam MRm; Zeiss) focusing on the terminal end of lesions on the RPE layer (usually at P16), and individual images were merged to create one retinal image using the automated merge function (mosaiX; Zeiss) in the software (AxioVision 4.6.3.0; Zeiss). Image J was used for quantification of subretinal neovascularization lesion number and areas in Vldlr^−/− retinas (National Institutes of Health, imagej.nih.gov/ij/) with designed plugins adapted from the method used to measure retinal neovascularization (SWIFT_NV) in the OIR model (Stahl, A. et al., Angiogenesis 12, 297-301 (2009)) which use a user-designated threshold to mark lesion structures that clearly stand out from background fluorescence of normal vessels, and can automatically remove small artifacts by selecting objects with a minimum size of 100 pixels. Other larger artifacts such as occasional cellular debris or retinal periphery with hyperfluorescence can be manually excluded from quantification. Lesion numbers and areas were quantified with researchers masked to the identity of samples.
At P16, mice were anesthetized, the eyes were enucleated and fixed in 4% paraformaldehyde followed by dissection and staining of the retinas with fluoresceinated isolectin IB4 (Invitrogen) to visualize subretinal neovascularization in whole mounted retinas. 3D reconstructed images were taken with confocal microscopy (Leica TCS SP2 AOBS) and z-stacks were 3D reconstructed using Volocity software (Perkin Elmer).
Subretinal injection into P0 neonate eyes was performed as previously described (Matsuda, T., et al., Proc. Nat. Acad. Sci. USA 101, 16-22 (2004), and Wang, S., et al., Developmental cell 30, 513-527 (2014)) under a dissection microscope. P0 Vldlr^−/− or wild type pups were anesthetized on ice for several minutes. The eyelid was prepped with Betadine, followed by water, then 70% ethanol using cotton swabs. A blade was used to gently cut open the eyelid. The injection needle was inserted into the eyeball through the incision until slight resistance was felt. Approximately 0.5 μl solution containing siRNA/siControl or AAV2/Control (10^12-10^13 gc/ml) was introduced into the subretinal space using a pulled angled glass pipette controlled by a FemtoJet (Eppendorf). The left eyes were uninjected for within-animal controls. Curved forceps were used to slowly close the eyelid. Mice were placed on a circulating water blanket for warmth. The retinas were collected at P12 for PCR assay and P16 for whole mount analysis.

In assay [1] the test system is c-fos and its target genes (Mmp10, Il6, IlIb and Tnf). The experiment in a line: Quantitative RT-PCR of retinal mRNA. Format: in vivo, mouse. The settings on record: oral gavage 1 mg/kg daily P5 to P15; Vldlr^−/− retinas. As to the method: as §1
Total RNA was extracted from mouse retinas using RNeasy kit (Qiagen) and reverse-transcribed with SuperScript® III Reverse Transcriptase (Thermo Fisher) to generate cDNA. Quantitative PCR was performed using a 7300 system (Applied Biosystems) with KAPA SYBR FAST qPCR Kits (Kapa Biosystems) using Rhodopsin, Pecam, Vldlr, CD68, CD11b, CD45, c-Fos, Il6, Il11b, Tnf, mmp10, Socs3, uPA, c-Jun, VEGF120, VEGF164, VEGF188 primers.
Subretinal injection into P0 neonate eyes was performed as previously described (Matsuda, T., et al., Proc. Nat. Acad. Sci. USA 101, 16-22 (2004), and Wang, S., et al., Developmental cell 30, 513-527 (2014)) under a dissection microscope. P0 Vldlr^−/− or wild type pups were anesthetized on ice for several minutes. The eyelid was prepped with Betadine, followed by water, then 70% ethanol using cotton swabs. […]

For the next assay, the system named is AP-1. The settings on record: without activating transcription of retinoic acid response element; Fanjul et al. 1994; cited from earlier work.
The mark [2] stands for this setting: oral gavage 1 mg/kg daily P5 to P15, Vldlr^−/− mice.
Setting [3] is: oral gavage, Vldlr^−/− retinas vs controls.

For `CC1=C(/C=C/C(=C/C=C/C(C)=C/C(=O)O)c2ccc(C)cc2)C(C)(C)CCC1` [SR11302, (E,E,Z,E)-3-Methyl-7-(4-methylphenyl)-9-(2,6,6-trimethyl-1-cyclohexen-1-yl)-2,4,6,8-nonatetraenoic acid], in the assay with Vldlr^−/− mice (setting [2]), the lesion size decreased was 40% and the “total lesion number reduced” value stood at 48%. Also, in the assay on Vldlr^−/− mice (setting [3]), the “neovascularization (in words)” value is recorded as “inhibited”, the “total lesion number (in words)” value was “reduced” and the “total lesion size (in words)” value was “reduced”. Also, in assay [1], the “c-FOS target genes (Il6, IlIb and Tnf) mRNA” value is “reduced”; the c-fos expression itself entry is “without influencing”. For the same compound, the AP-1 activity entry in the assay with AP-1 was “specifically inhibits”.

These data come from US20190352638A1, “THERAPEUTIC MODULATION OF C-FOS IN THE EYE” (Children's Medical Center Corporation, priority 2016, published 2019).
